According to patent US20120138290A1, “METHODS TO STIMULATE BIOGENIC METHANE PRODUCTION FROM HYDROCARBON-BEARING FORMATIONS” (SYNTHETIC GENOMICS, INC., priority 2010, published 2012):
“And” between values parts separate entries of the source, which are not always exact repeats. Identical values can stand only once. Like-named read-outs stand apart in the source and are kept apart here.

Tested on: functional microbial subcommunity (inoculum 2L-245 from upflow reactor)
Experiment: Stimulation of methane production: batch cultures with additive/stimulant, with or without coal, headspace methane by gas chromatography
Format: cell-based
Protocol: The availability of an inoculum of a functional microbial subcommunity capable of producing methane from coal in vitro prompted laboratory experiments where various stimulants were tested for their effect on methane production. […] The experiments were conducted at three different levels of additives (0.5×, 1× and 2×): additives (stimulants) were added in the following three concentrations. […] DMY media: DM media composition in milli-Q water is made as described above with the addition of 0.5 g/L yeast extract. DMSC media: DM media in milli-Q water is made as described above with the addition of 100 g/L sterile, anaerobic, sub-bituminous coal from the San Juan Basin. DMSCY media: DM media in milli-Q water is made as described above with the addition of 100 g/L sterile, anaerobic, sub-bituminous coal from the San Juan Basin and 0.5 g/L yeast extract. The coal used in these experiments originated from the San Juan Basin (BHP Billiton, Tex.). […] Each stimulant was tested in the presence or absence of coal. The experiments were conducted at three different concentrations of additives (0.5× (low), 1× (medium), and 2× (high)) as described above. Each sample type was conducted in 4 replicates. […] Control sample types were media alone, media plus coal, media plus yeast extract and media plus coal and yeast extract. At each time point, headspace measurements were taken using gas chromatography (microGC […], Agilent Technologies, Inc.). […] Each experiment was performed in quadruplicate. Methane at time 0 was assumed to be 0%.

[1] = DMSCY (coal), 5 mM NH4Cl, week 1
[2] = DMSCY (coal), 5 mM NH4Cl, week 3
[3] = DMSCY (coal), 5 mM NH4Cl, week 5
[4] = DMSCY (coal), 10 mM NH4Cl, week 1
[5] = DMSCY (coal), 10 mM NH4Cl, week 3
[6] = DMSCY (coal), 10 mM NH4Cl, week 5
[7] = DMSCY (coal), 20 mM NH4Cl, week 1
[8] = DMSCY (coal), 20 mM NH4Cl, week 5
[9] = DMY (no coal), 5 mM NH4Cl, week 1
[10] = DMY (no coal), 5 mM NH4Cl, week 3
[11] = DMY (no coal), 5 mM NH4Cl, week 5
[12] = DMY (no coal), 10 mM NH4Cl, week 1
[13] = DMY (no coal), 20 mM NH4Cl, week 1
[14] = DMY (no coal), 20 mM NH4Cl, week 3
[15] = DMY (no coal), 20 mM NH4Cl, week 5
[16] = DMSCY (coal), 2.0 mM KCl, week 1
[17] = DMSCY (coal), 2.0 mM KCl, week 3
[18] = DMSCY (coal), 2.0 mM KCl, week 5
[19] = DMSCY (coal), 4.0 mM KCl, week 1
[20] = DMSCY (coal), 4.0 mM KCl, week 3
[21] = DMSCY (coal), 4.0 mM KCl, week 5
[22] = DMSCY (coal), 8.0 mM KCl, week 1
[23] = DMSCY (coal), 8.0 mM KCl, week 3
[24] = DMSCY (coal), 8.0 mM KCl, week 5
[25] = DMY (no coal), 2.0 mM KCl, week 1
[26] = DMY (no coal), 2.0 mM KCl, week 3
[27] = DMY (no coal), 2.0 mM KCl, week 5
[28] = DMY (no coal), 4.0 mM KCl, week 1
[29] = DMY (no coal), 4.0 mM KCl, week 3
[30] = DMY (no coal), 4.0 mM KCl, week 5
[31] = DMY (no coal), 8.0 mM KCl, week 1
[32] = DMY (no coal), 8.0 mM KCl, week 3
[33] = DMY (no coal), 8.0 mM KCl, week 5
[34] = DMSCY (coal), 5.0 μM MnCl2, week 3
[35] = DMSCY (coal), 5.0 μM MnCl2, week 5
[36] = DMSCY (coal), 10 μM MnCl2, week 1
[37] = DMSCY (coal), 10 μM MnCl2, week 3
[38] = DMSCY (coal), 10 μM MnCl2, week 5
[39] = DMY (no coal), 5.0 μM MnCl2, week 1
[40] = DMY (no coal), 5.0 μM MnCl2, week 3
[41] = DMY (no coal), 5.0 μM MnCl2, week 5
[42] = DMY (no coal), 10 μM MnCl2, week 1
[43] = DMY (no coal), 10 μM MnCl2, week 3
[44] = DMY (no coal), 10 μM MnCl2, week 5

Cl.N [NH4Cl, ammonium chloride] was tested, and the “methane production (Average)” value [1] was 0.31, the “methane production (RepA-Rep D)” value [1] was 0.35 and 0.27 and 0.31 and 0.30 and the “methane production (Average)” value [2] was 1.11. The “methane production (RepA-Rep D)” value [2] was 1.24 and 1.03 and 1.13, the “methane production (Average)” value [3] was 1.50 and the “methane production (RepA-Rep D)” value [3] was 1.67 and 1.41 and 1.48 and 1.43. The “methane production (Average)” value [4] was 0.25, the “methane production (RepA-Rep D)” value [4] was 0.25 and 0.22 and 0.28 and the “methane production (Average)” value [5] was 1.30. The “methane production (RepA-Rep D)” value [5] was 1.22 and 1.43 and 1.41 and 1.14, the “methane production (Average)” value [6] was 2.22 and the “methane production (RepA-Rep D)” value [6] was 1.98 and 2.70 and 2.67 and 1.54. For the same compound, the “methane production (Average)” value [7] was 0.22, the “methane production (RepA-Rep D)” value [7] was 0.24 and 0.22 and 0.21 and the “methane production (Average)” value (DMSCY (coal), 20 mM NH4Cl, week 3) was 1.18. The “methane production (Average)” value [8] was 1.46, the “methane production (RepA-Rep D)” value [8] was 1.63 and 1.48 and 1.37 and 1.36 and the “methane production (Average)” value [9] was 0.26. For the same compound, the “methane production (RepA-Rep D)” value [9] was 0.26 and 0.27, the “methane production (Average)” value [10] was 0.71 and the “methane production (RepA-Rep D)” value [10] was 0.74 and 0.68 and 0.67. For the same compound, the “methane production (Average)” value [11] was 0.66, the “methane production (RepA-Rep D)” value [11] was 0.69 and 0.65 and 0.62 and the “methane production (Average)” value [12] was 0.20. The “methane production (RepA-Rep D)” value [12] was 0.22 and 0.21 and 0.15, the “methane production (Average)” value (DMY (no coal), 10 mM NH4Cl, week 3) was 0.57 and the “methane production (Average)” value (DMY (no coal), 10 mM NH4Cl, week 5) was 0.58. For the same compound, the “methane production (Average)” value [13] was 0.22, the “methane production (RepA-Rep D)” value [13] was 0.23 and 0.22 and 0.21 and the “methane production (Average)” value [14] was 0.77. For the same compound, the “methane production (RepA-Rep D)” value [14] was 0.80 and 0.78 and 0.76, the “methane production (Average)” value [15] was 0.78 and the “methane production (RepA-Rep D)” value [15] was 0.80 and 0.79 and 0.76 and 0.77. The “effect on the production of methane” value (intermediate concentration of the stimulant (FIGS. 1A, 1B, 2A)) was “statistically significant positive effect” and the “dependence of methane production on coal” value (with or without coal) was “only observed in presence of coal”.

[Cl-].[K+] [KCl, potassium chloride] was tested, and the “methane production (Average)” value [16] was 0.34, the “methane production (RepA-Rep D)” value [16] was 0.35 and 0.30 and 0.32 and 0.39 and the “methane production (Average)” value [17] was 1.14. For the same compound, the “methane production (RepA-Rep D)” value [17] was 1.12 and 1.25 and 1.04 and 1.16, the “methane production (Average)” value [18] was 1.39 and the “methane production (RepA-Rep D)” value [18] was 1.32 and 1.49 and 1.30 and 1.47. The “methane production (Average)” value [19] was 0.4, the “methane production (RepA-Rep D)” value [19] was 0.44 and 0.43 and 0.46 and the “methane production (Average)” value [20] was 1.50. For the same compound, the “methane production (RepA-Rep D)” value [20] was 1.35 and 1.46 and 1.60 and 1.57, the “methane production (Average)” value [21] was 1.69 and the “methane production (RepA-Rep D)” value [21] was 1.59 and 1.87 and 1.70. For the same compound, the “methane production (Average)” value [22] was 0.3936, the “methane production (RepA-Rep D)” value [22] was 0.3871 and 0.3364 and 0.4219 and 0.429 and the “methane production (Average)” value [23] was 1.327. For the same compound, the “methane production (RepA-Rep D)” value [23] was 1.346 and 1.301 and 1.36 and 1.304, the “methane production (Average)” value [24] was 1.562 and the “methane production (RepA-Rep D)” value [24] was 1.564 and 1.478 and 1.557 and 1.649. The “methane production (Average)” value [25] was 0.30, the “methane production (RepA-Rep D)” value [25] was 0.29 and 0.30 and 0.32 and the “methane production (Average)” value [26] was 0.81. For the same compound, the “methane production (RepA-Rep D)” value [26] was 0.99 and 0.79 and 0.78 and 0.70, the “methane production (Average)” value [27] was 0.77 and the “methane production (RepA-Rep D)” value [27] was 0.78 and 0.75 and 0.79. The “methane production (Average)” value [28] was 0.23, the “methane production (RepA-Rep D)” value [28] was 0.23 and 0.22 and 0.24 and the “methane production (Average)” value [29] was 0.26. The “methane production (RepA-Rep D)” value [29] was 0.24 and 0.26 and 0.29, the “methane production (Average)” value [30] was 0.29 and the “methane production (RepA-Rep D)” value [30] was 0.23 and 0.26 and 0.40. The “methane production (Average)” value [31] was 0.2015, the “methane production (RepA-Rep D)” value [31] was 0.2005 and 0.2037 and 0.195 and 0.2068 and the “methane production (Average)” value [32] was 0.2178. For the same compound, the “methane production (RepA-Rep D)” value [32] was 0.2211 and 0.2119 and 0.2206 and 0.2177, the “methane production (Average)” value [33] was 0.2151 and the “methane production (RepA-Rep D)” value [33] was 0.2177 and 0.2082 and 0.2231 and 0.2112. For the same compound, the effect on methanogenesis (absence of coal (DMY), >2 mM KCl) was “greatly decreased methanogenesis” and the “trend in methane production” value (week 5, KCl-containing samples) was “decreasing trend”.

With O=S([O-])([O-])=S.[Na+].[Na+] [Na2S2O3, sodium thiosulfate] the “dependence of methane production on coal” value was “only observed in the presence of coal” and the “effect on the production of methane” value was “statistically significant positive effect”.

With manganese chloride [MnCl2] the “methane production (Average)” value (DMSCY (coal), 5.0 μM MnCl2, week 1) was 0.44, the “methane production (Average)” value [34] was 1.56 and the “methane production (RepA-Rep D)” value [34] was 1.51 and 1.55 and 1.53 and 1.64. The “methane production (Average)” value [35] was 1.82, the “methane production (RepA-Rep D)” value [35] was 1.94 and 1.81 and 1.70 and 1.85 and the “methane production (Average)” value [36] was 0.42. For the same compound, the “methane production (RepA-Rep D)” value [36] was 0.44 and 0.41 and 0.43, the “methane production (Average)” value [37] was 1.46 and the “methane production (RepA-Rep D)” value [37] was 1.45 and 1.49 and 1.43 and 1.48. For the same compound, the “methane production (Average)” value [38] was 1.72, the “methane production (RepA-Rep D)” value [38] was 1.63 and 1.82 and 1.71 and 1.70 and the “methane production (Average)” value [39] was 0.34. The “methane production (RepA-Rep D)” value [39] was 0.34 and 0.33 and 0.36, the “methane production (Average)” value [40] was 0.92 and the “methane production (RepA-Rep D)” value [40] was 0.92 and 0.90 and 0.94. The “methane production (Average)” value [41] was 0.87, the “methane production (RepA-Rep D)” value [41] was 0.89 and 0.86 and 0.85 and 0.88 and the “methane production (Average)” value [42] was 0.36. For the same compound, the “methane production (RepA-Rep D)” value [42] was 0.39 and 0.38 and 0.35, the “methane production (Average)” value [43] was 1.02 and the “methane production (RepA-Rep D)” value [43] was 1.00 and 1.05 and 1.04 and 1.01. The “methane production (Average)” value [44] was 0.97 and the “methane production (RepA-Rep D)” value [44] was 0.89 and 1.03 and 0.96 and 1.01.
